These results are taken from article PMC12362796, “Bilirubin Targeting WNK1 to Alleviate NLRP3‐Mediated Neuroinflammation” (Advanced Science, 2025).

Test [1] concerns TRPM2 channels. On the set-up: method as in PMID 36921602. The conditions noted are these: activation of TRPM2 channels; cited from earlier work.
The subject of test [2] is phospho-S940 KCC2. In words: Western blotting of phospho-S940 KCC2 in hippocampal tissue. It is filed as cell-based, mouse. From the text: Since bilirubin‐induced activation of WNK1 kinase activity increases [Cl⁻]i in neurons, we sought to elucidate the downstream effector proteins of WNK1 that are involved in this process. Neuronal [Cl⁻]i is primarily regulated by the Cl⁻‐K⁺ symporter KCC2, with additional modulation by factors such as the Na⁺‐K⁺‐Cl⁻ co‐transporter NKCC1, GABAA receptors, and glycine receptors (GlyR), all of which contribute to [Cl⁻]i homeostasis.^[ [31] ^] To investigate the mechanism underlying bilirubin‐induced changes in [Cl⁻]i, we selectively targeted these proteins using pharmacological inhibitors (VU0463271 for KCC2, bumetanide for NKCC1, bicuculline for GABAA receptors, and strychnine for GlyR) and activated KCC2 using CLP257.^[ [35], [36] ^] […]
Cells or tissues were lysed by grinding in RIPA buffer (cat. no. PC101; Epizyme Biotech) supplemented with a protease inhibitor cocktail (cat. no. 5872S; Cell Signaling Technology) at 4 °C. […] The total protein concentration was determined using the Pierce BCA Protein Assay Kit (cat. no. 23 225, Thermo Fisher Scientific). […]
(A western blot detects proteins with antibodies after separation by electrophoresis.)

The EC50 is the concentration that produces a half-maximal response.

With `C=CC1=C(C)/C(=C/c2[nH]c(Cc3[nH]c(/C=C4\NC(=O)C(C)=C4C=C)c(C)c3CCC(=O)O)c(CCC(=O)O)c2C)NC1=O` [bilirubin, Bilirubin], in test [1], the EC50 was 1.9 µM. The “relative expression of phospho-S940 KCC2” value in test [2] (Wnk1fl/fl mice hippocampal tissue) is “decrease”; in test [2] (Wnk1fl/fl,Thy1-Cre mice hippocampal tissue), “no such effect”.
